The values below come from publication PMC8515607 (ACS Omega, 2021).

Read-outs that look alike come from different tables or passages of the source.

The subject of assay [1] is human colon adenocarcinoma cell lines. Particulars: cited from earlier work.
For assay [2], the system named is A549. Further details: method as in PMID 32295119. The note with it: amide directly on C7; cited from earlier work.
Assay [3] has as its system MCF-7. More on the design: method as in PMID 32295119. The note with it: amide directly on C7; cited from earlier work.
Assay [4] relates to LoVo. Further details: method as in PMID 32295119. The note with it: cited from earlier work.
The next assay deals with A549 and MCF7 cells. Further details: method as in PMID 32295119. The note with it: read-out: IC50 A549 and MCF7 of 7-amide (span); amide directly on C7; cited from earlier work.
Assay [5] concerns A549. Briefly: cells. Type of assay: cell-based, human. The note with it: for A549 SI: selectivity index = IC50 BALB/3T3 / IC50 A549.
The next assay has as its system LoVo/DX. Briefly: cells. Type of assay: cell-based, human. The note with it: for LoVo/DX RI: resistance index = IC50 LoVo/DX / IC50 LoVo; for LoVo/DX SI: selectivity index = IC50 BALB/3T3 / IC50 LoVo/DX.
For assay [6], the system named is LoVo. Briefly: cells. Particulars: for IC50: Homo sapiens, LoVo, 72 h, read-out: LoVo IC50 (nM); for LoVo SI: selectivity index = IC50 BALB/3T3 / IC50 LoVo. Type of assay: cell-based, human.
The subject of assay [7] is MCF-7. Nature of the assay: cells. Format: cell-based, human. The note with it: for IC50: Homo sapiens, MCF7, 72 h, read-out: MCF-7 IC50 (nM); for MCF-7 SI: selectivity index = IC50 BALB/3T3 / IC50 MCF-7.
The test system of a further assay is BALB/3T3. Briefly: In vitro antiproliferative activity, SRB assay, normal fibroblasts BALB/3T3. Format: cell-based. Particulars: Mus musculus, BALB/3T3, normal murine embryonic fibroblasts, 72 h, mean ± SD.
In assay [8] the test system is all cells used, both cancerous and normal. Nature of the assay: Antiproliferative activity, values quoted jointly for all cell lines tested. Format: cell-based. From the text: The A549 and MCF7 cell lines were purchased from the European Collection of Authenticated Cell Cultures (ECACC, Salisbury, U.K., 86012804 and 86012803). The LoVo cell line was purchased from the American Type Culture Collection (CCL-229, ATCC, Manassas, VA), and LoVo/DX by courtesy of Prof. E. Borowski (Technical University of Gdańsk, Gdańsk, Poland). The BALB/3T3 cell line was purchased from the American Type Culture Collection (CCL-163, ATCC, Manassas, VA). All of the cell lines are maintained in the Institute of Immunology and Experimental Therapy (IIET), Wroclaw, Poland. […]
After 72 h of incubation with the tested compounds, the cells were fixed in situ by gently adding cold 50% trichloroacetic acid (TCA) (POCh, Poland) and were incubated at room temperature for 1 h. […] Absorbance of each solution was read at Synergy H4 Hybrid Multi-Mode Microplate Reader (BioTek Instruments) at the 540 nm wavelength.
IC50 values were calculated in Excel sheet using formulas adapted by Mateusz Psurski fromCheburator 0.4, Dmitry Nevozhay software (version 1.2.0 software by Dmitry Nevozhay, 2004–2014, http://www.cheburator.nevozhay.com, freely available) for each experiment.[58] […]

Assay [9] concerns A549, MCF-7, and LoVo cells. Nature of the assay: Antiproliferative activity, values quoted jointly for three tumor lines. Type of assay: cell-based, human. Particulars: summary of Table 1; for IC50: Homo sapiens, read-out: IC50 against A549, MCF-7, and LoVo cells (span over the three lines). An excerpt:
The A549 and MCF7 cell lines were purchased from the European Collection of Authenticated Cell Cultures (ECACC, Salisbury, U.K., 86012804 and 86012803). The LoVo cell line was purchased from the American Type Culture Collection (CCL-229, ATCC, Manassas, VA), and LoVo/DX by courtesy of Prof. E. Borowski (Technical University of Gdańsk, Gdańsk, Poland). The BALB/3T3 cell line was purchased from the American Type Culture Collection (CCL-163, ATCC, Manassas, VA). All of the cell lines are maintained in the Institute of Immunology and Experimental Therapy (IIET), Wroclaw, Poland.
A549 cells were cultured in a mixture of OptiMEM and Roswell Park Memorial Institute (RPMI) 1640 (1:1) medium (IIET, Wroclaw, Poland), supplemented with 10% fetal bovine serum HyClone (GE Healthcare) and 2 mM L-glutamine (Sigma-Aldrich, Germany). MCF7 cells were cultured in a mixture of Eagle’s medium (IIET, Wroclaw, Poland), supplemented with 10% fetal bovine serum, 2 mM L-glutamine, and insulin (Sigma-Aldrich, Germany). LoVo and LoVo/DX cells were cultured in F12K medium (Corning), supplemented with 10% fetal bovine serum HyClone (GE Healthcare) and 0.1 μg/mL doxorubicin (Accord) for LoVo/DX. BALB/3T3 fibroblasts were cultured in Dulbecco’s medium (Gibco), supplemented with 10% fetal bovine serum (GE Healthcare) and 2 mM L-glutamine (Sigma-Aldrich, Germany). All culture media contained antibiotics: 100 U/mL penicillin (Polfa-Tarchomin, Poland) and 0.1 mg/mL streptomycin (Sigma-Aldrich, Germany). All cell lines were cultured during entire experiment in humid atmosphere at 37 °C and 5% CO2.
All cell lines were exposed to each tested agent at different concentrations in the range 100–0.00001 μg/mL for 72 h. The cells were also exposed to the reference drug cisplatin (Teva Pharmaceuticals, Poland) and doxorubicin (Accord Healthcare Limited, U.K.). Additionally, all cell lines were exposed to dimethyl sulfoxide (DMSO) (solvent used for tested compounds) (POCh, Poland) at concentrations corresponding to those present in tested agents dilutions. After 72 h, sulforhodamine B (SRB) assay was performed.[57]
After 72 h of incubation with the tested compounds, the cells were fixed in situ by gently adding cold 50% trichloroacetic acid (TCA) (POCh, Poland) and were incubated at room temperature for 1 h. Then, the wells were washed four times with water and air-dried. Next, 0.1% solution of sulforhodamine B (Sigma-Aldrich, Germany) in 1% acetic acid (POCh, Poland) was added to each well and the plates were incubated at room temperature for 0.5 h. After incubation time, unbound dye was removed by washing plates four times with 1% acetic acid, whereas stain bound to cells was solubilized with 10 mM Tris base (Sigma-Aldrich, Germany). Absorbance of each solution was read at Synergy H4 Hybrid Multi-Mode Microplate Reader (BioTek Instruments) at the 540 nm wavelength.
IC50 values were calculated in Excel sheet using formulas adapted by Mateusz Psurski fromCheburator 0.4, Dmitry Nevozhay software (version 1.2.0 software by Dmitry Nevozhay, 2004–2014, http://www.cheburator.nevozhay.com, freely available) for each experiment.[58] Compounds at each concentration were tested in triplicate in a single experiment, and each experiment was repeated at least three times independently.

Setting [10] is: Homo sapiens, A549, 72 h, read-out: A549 IC50 (nM), 72 h exposure, SRB, mean ± SD.
[11] abbreviates: Homo sapiens, LoVo/DX, 72 h, read-out: LoVo/DX IC50 (nM), 72 h exposure, SRB, mean ± SD.

For the compound `CNc1ccc2c(cc1=O)C(NCc1ccccc1Cl)CCc1cc(OC)c(OC)c(OC)c1-2` (centres unmarked) [7-N-(2-chlorobenzyl)-10-methylaminocolchcine], in assay [1], the calculated selectivity coefficients entry is recorded as “around 90”.
Take `CCCCCCCCCCCCCCCC(=O)N[C@H]1CCc2cc(OC)c(OC)c(OC)c2-c2ccc(NC)c(=O)cc21` [7-palmitamide]: in the assay with A549 [2], the “SI A549 of 7-amide” value is recorded as 0.9. Also, the “SI MCF7 of 7-amide” value in the assay on MCF-7 [3] is 1.2. The “SI LoVo of 7-amide” value in the assay on LoVo [4] (amide directly on C7) is 8.8. Moreover, the IC50 in the assay on LoVo [4] (read-out: IC50 LoVo of 7-amide, amide directly on C7 of 10-N-methylaminocolchicine) was 62 nM; with A549 and MCF7 cells it was 460 to 620 nM.
Turning to `CNc1ccc2c(cc1=O)[C@@H](N=[N+]=[N-])CCc1cc(OC)c(OC)c(OC)c1-2` [Compound 4, 7-azido-10-N-methylaminocolchicine], the IC50 was 1.4 ± 0.5 nM in the assay with A549 [5] (setting [10]); 1.7 ± 0.6 nM in the assay on LoVo/DX (setting [11]); 1.1 ± 0.5 nM with LoVo [6]; 1.5 ± 0.3 nM in the assay on MCF-7 [7]; 2.1 ± 1.2 nM with BALB/3T3; 1.1 to 2.1 nM in [8] (cancerous and normal lines, read-out: IC50 against all cells used (span)). Moreover, the “A549 SI” value in the assay with A549 [5] was 1.5. Besides, the “LoVo/DX RI” value in the assay with LoVo/DX was found to be 1.5. Further, the “LoVo/DX SI” value in the assay on LoVo/DX is reported as 1.2. Moreover, the “LoVo SI” value with LoVo [6] is recorded as 1.9. Further, the “MCF-7 SI” value in the assay on MCF-7 [7] worked out at 1.4. In addition, the “SI (selectivity coefficients, all cancer lines)” value in assay [8] is given as under 2.
With `CNc1ccc2c(cc1=O)[C@@H](n1cc(CNC(=O)c3ccccc3Cl)nn1)CCc1cc(OC)c(OC)c(OC)c1-2` [Compound 35], the IC50 is 5.7 ± 2 nM with A549 [5] (setting [10]); at most 1000 nM with LoVo/DX (setting [11]); 1000 ± 97 nM in the assay on LoVo/DX (read-out: LoVo/DX IC50, 72 h exposure, SRB, mean ± SD); 6.3 ± 3.1 nM with LoVo [6]; 3.8 ± 0.4 nM with MCF-7 [7]; 12 ± 2.9 nM with BALB/3T3. Moreover, in [9], the IC50 was in the range of 2.7 to 6.3 nM. Moreover, in the assay on A549 [5], the “A549 SI” value stood at 2.1. Further, in the assay on LoVo/DX, the “LoVo/DX RI” value is reported as 160. The “LoVo/DX SI” value in the assay on LoVo/DX was under 0.1. In the assay with LoVo [6], the “LoVo SI” value is given as 1.9. Further, the “MCF-7 SI” value with MCF-7 [7] was 3.2.
On to `C=CCOC(=O)NCc1cn([C@H]2CCc3cc(OC)c(OC)c(OC)c3-c3ccc(NC)c(=O)cc32)nn1` [Compound 39], for which the IC50 in the assay on A549 [5] (setting [10]) worked out at 3.3 ± 0.5 nM; in the assay on LoVo/DX (setting [11]), 440 ± 64 nM; in the assay on LoVo [6], 4.3 ± 0.6 nM; with MCF-7 [7], 2.6 ± 0.5 nM; with BALB/3T3, 9.1 ± 2.6 nM. The “A549 SI” value in the assay on A549 [5] stood at 2.8. In addition, in the assay with LoVo/DX, the “LoVo/DX RI” value is 100. Moreover, the “LoVo/DX SI” value with LoVo/DX was under 0.1. Besides, the “LoVo SI” value in the assay with LoVo [6] stood at 2.1. The “MCF-7 SI” value in the assay with MCF-7 [7] is listed as 3.5. Further, the “SI for A549, MCF-7, and LoVo cells (span)” value (“SI for A549” below) in [9] is 2.1–3.9.
With `CNc1ccc2c(cc1=O)[C@@H](n1cc(CNC(=O)OCC(C)C)nn1)CCc1cc(OC)c(OC)c(OC)c1-2` [Compound 40], the IC50 in the assay on A549 [5] (setting [10]) is 1.2 to 1.9 nM; in the assay with A549 [5] (read-out: A549 IC50, 72 h exposure, SRB, mean ± SD), 1.2 ± 0.1 nM; with LoVo/DX (setting [11]), 310 ± 61 nM; in the assay on LoVo [6], 1.7 ± 0.2 nM; in the assay with MCF-7 [7], 1.2 ± 0.3 nM; in the assay on BALB/3T3, 3.9 ± 0.2 nM. Also, the IC50 in assay [9] lay within 1.2 to 1.7 nM. Further, the “A549 SI” value in the assay on A549 [5] worked out at 3.3. Moreover, the “LoVo/DX RI” value in the assay on LoVo/DX is reported as 180. For the same compound, the “LoVo/DX SI” value with LoVo/DX was under 0.1. Moreover, the “LoVo SI” value in the assay with LoVo [6] came to 2.3. Besides, the “MCF-7 SI” value in the assay on MCF-7 [7] is given as 3.3. For the same compound, the “SI for A549” value in assay [9] is 2.1–3.9.
In the case of `CNc1ccc2c(cc1=O)[C@@H](n1cc(CNC(=O)Oc3ccccc3)nn1)CCc1cc(OC)c(OC)c(OC)c1-2` [Compound 43], the IC50 was found to be 4.1 ± 0.6 nM in the assay with A549 [5] (setting [10]); 920 ± 150 nM in the assay on LoVo/DX (setting [11]); 4.7 ± 1.1 nM with LoVo [6]; 2.8 ± 1.2 nM in the assay on MCF-7 [7]; 11 ± 0.4 nM in the assay on BALB/3T3. Besides, the “A549 SI” value in the assay with A549 [5] was found to be 2.7. Further, the “LoVo/DX RI” value with LoVo/DX is 200. Besides, the “LoVo/DX SI” value with LoVo/DX is under 0.1. Besides, the “LoVo SI” value in the assay with LoVo [6] worked out at 2.3. In the assay with MCF-7 [7], the “MCF-7 SI” value stood at 3.9. Moreover, the “SI for A549” value in assay [9] was 2.1–3.9.
